Assay results from US20260248787A9, “MEDICAMENT FOR TREATING CANCER COMPRISING OPTICALLY ACTIVE AZABICYCLO RING DERIVATIVE” (Sumitomo Pharma Co., Ltd., priority 2023, published 2026).
Marks after values point to notes of the source that are not given here.

Test: Phase 1/2 first-in-human clinical study, safety evaluation (DLT, TEAE, SAE)

## C=C1C[C@@H]2CC[C@H]1[C@@H](C(=O)N1CCC3(CC1)CN(c1ncncc1Oc1ccc(F)cc1C(=O)N(C(C)C)C(C)C)C3)N2 [the present compound, 5-fluoro-2-[(4-{7-[(1S,3S,4R)-5-methylidene-2-azabicyclo[2.2.2]octane-3-carbonyl]-2,7-diazaspiro[3.5]nonan-2-yl}pyrimidin-5-yl)oxy]-N,N-di(propan-2-yl)benzamide]
40 mg BID Arm B (N=4; one patient not DLT evaluable)
  Patients with any DLTs: 0* n (%) and (0.0) n (%)
24 patients enrolled
  cases of differentiation syndrome in patients with MLLr or NPM1m: no cases
  grade of the majority of TEAEs related to the present compound: Grade 1 or 2
  patients who experienced at least one TEAE: 24 patients
  related TEAE leading to dose withdrawn or dose reduction: No related TEAE leading to dose withdrawn or dose reduction
24 patients enrolled (40-120 mg BID Arm A, 40-60 mg BID Arm B)
  patients who developed DLT: none
24 patients, Arm A + Arm B
  patients with fatal SAEs, total (all unrelated): 8 patients
  patients with serious adverse events (SAEs), total: 15 patients
40 to 300 mg BID (Examples 1 and 5)
  safety in humans: confirmed to be safe
43 patients, 40-200 mg BID
  Treatment-related QT interval prolongation events: not reported
  cases of differentiation syndrome in patients with MLLr or NPM1m: no cases
  drug-related AE resulting in permanent treatment discontinuation: No drug-related AE
  grade of the majority of TEAEs: Grade 1 or Grade 2
  treatment-related deaths: no treatment-related deaths
43 patients, any dose level of 40-200 mg
  DLTs: No DLTs
43 patients, patient with TP-53 mutation
  cases of suspected differentiation syndrome related to the present compound: One
57 patients, 40-300 mg
  Differentiation syndrome (DS): 3 patients
  drug-related AE resulting in permanent treatment discontinuation: No drug-related AE
  treatment-related deaths: no treatment-related deaths
57 patients, any dose level of 40-300 mg
  DLTs: no DLTs
Arm A N=14, Any Grade
  Patients with Any TEAE: 14 (100.0) n (%)
  TEAE: Alanine aminotransferase increased: 1 (7.1) n (%)
  TEAE: Anaemia: 5 (35.7) n (%)
  TEAE: Aspartate aminotransferase increased: 2 (14.3) n (%)
  TEAE: Blood and lymphatic system disorders: 10 (71.4) n (%)
  TEAE: Constipation: 3 (21.4) n (%)
  TEAE: Decreased appetite: 3 (21.4) n (%)
  TEAE: Disease progression: 1 (7.1) n (%)
  TEAE: Dyspnoea: 3 (21.4) n (%)
  TEAE: Epistaxis: 1 (7.1) n (%)
  TEAE: Fatigue: 3 (21.4) n (%)
  TEAE: Gastrointestinal disorders: 9 (64.3) n (%)
  TEAE: General disorders and administration site disorders: 8 (57.1) n (%)
  TEAE: Headache: 5 (35.7) n (%)
  TEAE: Hemorrhoids: 0 n (%)
  TEAE: Hypertriglyceridaemia: 1 (7.1) n (%)
  TEAE: Hypoalbuminaemia: 3 (21.4) n (%)
  TEAE: Hypocalcaemia: 3 (21.4) n (%)
  TEAE: Hypokalaemia: 2 (14.3) n (%)
  TEAE: Hypomagnaesemia: 3 (21.4) n (%)
  TEAE: Hyponatraemia: 4 (28.6) n (%)
  TEAE: Infections and Infestations: 8 (57.1) n (%)
  TEAE: Investigations: 10 (71.4) n (%)
  TEAE: Metabolism and nutrition disorders: 11 (78.6) n (%)
  TEAE: Musculoskeletal and connective tissue disorders: 7 (50.0) n (%)
  TEAE: Nausea: 5 (35.7) n (%)
  TEAE: Nervous System Disorders: 7 (50.0) n (%)
  TEAE: Oedema peripheral: 2 (14.3) n (%)
  TEAE: Pain in extremity: 3 (21.4) n (%)
  TEAE: Platelet count decreased: 3 (21.4) n (%)
  TEAE: Pneumonia: 2 (14.3) n (%)
  TEAE: Pruritus: 3 (21.4) n (%)
  TEAE: Pyrexia: 3 (21.4) n (%)
  TEAE: Respiratory, thoracic and mediastinal disorders: 6 (42.9) n (%)
  TEAE: Sepsis: 2 (14.3) n (%)
  TEAE: Skin and subcutaneous tissue disorders: 5 (35.7) n (%)
  TEAE: Stomatitis: 1 (7.1) n (%)
  TEAE: Vomiting: 3 (21.4) n (%)
  related TEAE: Aspartate aminotransferase increased: 0 n (%)
  related TEAE: Blood and lymphatic system disorders: 0 n (%)
  related TEAE: Decreased appetite: 2 (14.3) n (%)
  related TEAE: Differentiation syndrome: 1 (7.1) n (%)
  related TEAE: Gastrointestinal disorders: 2 (14.3) n (%)
  related TEAE: General disorders and administration site conditions: 1 (7.1) n (%)
  related TEAE: Headache: 1 (7.1) n (%)
  related TEAE: Hypertriglyceridaemia: 0 n (%)
  related TEAE: Hyperuricaemia: 1 (7.1) n (%)
  related TEAE: Increased appetite: 1 (7.1) n (%)
  related TEAE: Investigations: 0 n (%)
  related TEAE: Leukocytosis: 0 n (%)
  related TEAE: Metabolism and nutrition disorders: 4 (28.6) n (%)
  related TEAE: Nausea: 2 (14.3) n (%)
  related TEAE: Neoplasms benign, malignant and unspecified (incl cysts and polyps): 1 (7.1) n (%)
  related TEAE: Nervous system disorders: 1 (7.1) n (%)
  related TEAE: Thirst: 1 (7.1) n (%)
  related TEAE: Vomiting: 2 (14.3) n (%)
Arm A N=14, ≥Grade 3
  Patients with Any TEAE: 14 (100.0) n (%)
  TEAE: Alanine aminotransferase increased: 0 n (%)
  TEAE: Anaemia: 4 (28.6) n (%)
  TEAE: Aspartate aminotransferase increased: 1 (7.1) n (%)
  TEAE: Blood and lymphatic system disorders: 8 (57.1) n (%)
  TEAE: Constipation: 0 n (%)
  TEAE: Decreased appetite: 0 n (%)
  TEAE: Disease progression: 1 (7.1) n (%)
  TEAE: Dyspnoea: 1 (7.1) n (%)
  TEAE: Epistaxis: 0 n (%)
  TEAE: Fatigue: 0 n (%)
  TEAE: Gastrointestinal disorders: 1 (7.1) n (%)
  TEAE: General disorders and administration site disorders: 2 (14.3) n (%)
  TEAE: Headache: 0 n (%)
  TEAE: Hemorrhoids: 0 n (%)
  TEAE: Hypertriglyceridaemia: 0 n (%)
  TEAE: Hypoalbuminaemia: 0 n (%)
  TEAE: Hypocalcaemia: 0 n (%)
  TEAE: Hypokalaemia: 0 n (%)
  TEAE: Hypomagnaesemia: 0 n (%)
  TEAE: Hyponatraemia: 0 n (%)
  TEAE: Infections and Infestations: 6 (42.9) n (%)
  TEAE: Investigations: 4 (28.6) n (%)
  TEAE: Metabolism and nutrition disorders: 1 (7.1) n (%)
  TEAE: Musculoskeletal and connective tissue disorders: 0 n (%)
  TEAE: Nausea: 0 n (%)
  TEAE: Nervous System Disorders: 2 (14.3) n (%)
  TEAE: Oedema peripheral: 0 n (%)
  TEAE: Pain in extremity: 0 n (%)
  TEAE: Platelet count decreased: 1 (7.1) n (%)
  TEAE: Pneumonia: 2 (14.3) n (%)
  TEAE: Pruritus: 0 n (%)
  TEAE: Pyrexia: 0 n (%)
  TEAE: Respiratory, thoracic and mediastinal disorders: 2 (14.3) n (%)
  TEAE: Sepsis: 2 (14.3) n (%)
  TEAE: Skin and subcutaneous tissue disorders: 0 n (%)
  TEAE: Stomatitis: 0 n (%)
  TEAE: Vomiting: 0 n (%)
  related TEAE: Aspartate aminotransferase increased: 0 n (%)
  related TEAE: Blood and lymphatic system disorders: 0 n (%)
  related TEAE: Decreased appetite: 0 n (%)
  related TEAE: Differentiation syndrome: 1 (7.1) n (%)
  related TEAE: Gastrointestinal disorders: 0 n (%)
  related TEAE: General disorders and administration site conditions: 0 n (%)
  related TEAE: Headache: 0 n (%)
  related TEAE: Hypertriglyceridaemia: 0 n (%)
  related TEAE: Hyperuricaemia: 0 n (%)
  related TEAE: Increased appetite: 0 n (%)
  related TEAE: Investigations: 0 n (%)
  related TEAE: Leukocytosis: 0 n (%)
  related TEAE: Metabolism and nutrition disorders: 0 n (%)
  related TEAE: Nausea: 0 n (%)
  related TEAE: Neoplasms benign, malignant and unspecified (incl cysts and polyps): 1 (7.1) n (%)
  related TEAE: Nervous system disorders: 0 n (%)
  related TEAE: Thirst: 0 n (%)
  related TEAE: Vomiting: 0 n (%)
Arm B N=10, Any Grade
  Patients with Any TEAE: 10 (100.0) n (%)
  TEAE: Alanine aminotransferase increased: 2 (20.0) n (%)
  TEAE: Anaemia: 1 (10.0) n (%)
  TEAE: Aspartate aminotransferase increased: 2 (20.0) n (%)
  TEAE: Blood and lymphatic system disorders: 3 (30.0) n (%)
  TEAE: Constipation: 1 (10.0) n (%)
  TEAE: Decreased appetite: 0 n (%)
  TEAE: Disease progression: 2 (20.0) n (%)
  TEAE: Dyspnoea: 1 (10.0) n (%)
  TEAE: Epistaxis: 2 (20.0) n (%)
  TEAE: Fatigue: 2 (20.0) n (%)
  TEAE: Gastrointestinal disorders: 6 (60.0) n (%)
  TEAE: General disorders and administration site disorders: 3 (30.0) n (%)
  TEAE: Headache: 1 (20.0) n (%)
  TEAE: Hemorrhoids: 2 (20.0) n (%)
  TEAE: Hypertriglyceridaemia: 2 (20.0) n (%)
  TEAE: Hypoalbuminaemia: 0 n (%)
  TEAE: Hypocalcaemia: 1 (10.0) n (%)
  TEAE: Hypokalaemia: 3 (30.0) n (%)
  TEAE: Hypomagnaesemia: 0 n (%)
  TEAE: Hyponatraemia: 0 n (%)
  TEAE: Infections and Infestations: 6 (60.0) n (%)
  TEAE: Investigations: 3 (30.0) n (%)
  TEAE: Metabolism and nutrition disorders: 5 (50.0) n (%)
  TEAE: Musculoskeletal and connective tissue disorders: 2 (20.0) n (%)
  TEAE: Nausea: 3 (30.0) n (%)
  TEAE: Nervous System Disorders: 2 (20.0) n (%)
  TEAE: Oedema peripheral: 0 n (%)
  TEAE: Pain in extremity: 1 (10.0) n (%)
  TEAE: Platelet count decreased: 0 n (%)
  TEAE: Pneumonia: 2 (20.0) n (%)
  TEAE: Pruritus: 0 n (%)
  TEAE: Pyrexia: 0 n (%)
  TEAE: Respiratory, thoracic and mediastinal disorders: 3 (30.0) n (%)
  TEAE: Sepsis: 2 (20.0) n (%)
  TEAE: Skin and subcutaneous tissue disorders: 1 (10.0) n (%)
  TEAE: Stomatitis: 2 (20.0) n (%)
  TEAE: Vomiting: 1 (10.0) n (%)
  related TEAE: Aspartate aminotransferase increased: 1 (10.0) n (%)
  related TEAE: Blood and lymphatic system disorders: 1 (10.0) n (%)
  related TEAE: Decreased appetite: 0 n (%)
  related TEAE: Differentiation syndrome: 0 n (%)
  related TEAE: Gastrointestinal disorders: 1 (10.0) n (%)
  related TEAE: General disorders and administration site conditions: 0 n (%)
  related TEAE: Headache: 0 n (%)
  related TEAE: Hypertriglyceridaemia: 1 (10.0) n (%)
  related TEAE: Hyperuricaemia: 0 n (%)
  related TEAE: Increased appetite: 0 n (%)
  related TEAE: Investigations: 1 (10.0) n (%)
  related TEAE: Leukocytosis: 1 (10.0) n (%)
  related TEAE: Metabolism and nutrition disorders: 1 (10.0) n (%)
  related TEAE: Nausea: 1 (10.0) n (%)
  related TEAE: Neoplasms benign, malignant and unspecified (incl cysts and polyps): 0 n (%)
  related TEAE: Nervous system disorders: 0 n (%)
  related TEAE: Thirst: 0 n (%)
  related TEAE: Vomiting: 1 (10.0) n (%)
Arm B N=10, ≥Grade 3
  Patients with Any TEAE: 8 (80.0) n (%)
  TEAE: Alanine aminotransferase increased: 0 n (%)
  TEAE: Anaemia: 0 n (%)
  TEAE: Aspartate aminotransferase increased: 1 (10.0) n (%)
  TEAE: Blood and lymphatic system disorders: 3 (30.0) n (%)
  TEAE: Constipation: 0 n (%)
  TEAE: Decreased appetite: 0 n (%)
